Experiments:
[1] = biological target: T1, cyt c/TLCL (Equus caballus, UniProt P00004); assay: cyt c/H2O2-induced TLCL (tetra-linoleoyl-cardiolipin) peroxidation, ESI-MS; format: biochemical; settings: for inhibition of cyt c/H2O2-induced oxidation of TLCL: cyt c 4 μM, TLCL 100 μM, H2O2 80 μM, 10 min, 37° C.; for oxidation of TLCL at ratio of cyt c to compound of 1:20: cyt c:compound 1:20
T1 construct: purchased Sigma (St. Louis, Mo.)
Method: For measurement of TLCL oxidation, cyt c (4 μM) was incubated with TLCL (100 μM) containing liposomes (TLCL/cyt c ratio-20:1) and H2O2 (80 μM) for 10 min at 37° C. The reaction was stopped by catalase (150 units/ml) and CL was extracted using Folch procedure^37. Analysis of (hydroperoxy- and hydroxy-) oxidized phospholipid species was performed as described^30. TLCL and its oxidized molecular species were extracted by the Folch procedure^37 and separated on a normal phase column (Luna 3 μm Silica 100A, 150×2 mm, Phenomenex, Torrance Calif.). […] The ESI probe was operated at a voltage differential of 3.5-5.0 kV in the negative ion mode. Capillary temperature was maintained at 150° C. Using range zoom (200-2000 m/z) in negative ion mode, the centroid spectra were acquired.
(§1) Small unilamellar liposomes were prepared from dioleoylphosphatidylcholine (DOPC) and TOCL (1:1 ratio) or DOPC and TLCL (4:1 ratio) by sonication in HEPES buffer (20 mM with 100 μM diethylene triamine pentaacetic acid (DTPA) (pH 7.4) 3×60 sec, relaxation time 2 min, 4° C.).

[2] = biological target: T2, cyt c/TOCL complexes (Equus caballus, UniProt P00004); assay: Peroxidase activity of cyt c/TOCL complexes, H2O2-induced oxidation of Amplex Red to resorufin; format: biochemical; settings: cyt c 1 μM, CL/cyt c 25:1, 50 μM Amplex Red, 50 μM H2O2, 20 min
T2 construct: purchased Sigma (St. Louis, Mo.)
Method: Conditions: cyt c (1 μM), H2O2 (50 μM), Amplex Red (50 μM). Experiments were performed in 20 mM HEPES buffer (pH 7.4) containing DTPA (100 μM), cyt c was incubated with DOPC/TOCL liposomes (1:1) at a ratio of TOCL:cyt c of 25:1.
Peroxidase activity of cyt c was assessed by oxidation of Amplex Red, etoposide or TLCL (tetra-linoleoyl-cardiolipin). Measurements of Amplex Red oxidation were performed using fluorescence of its oxidation product resorufin. Cyt c (1 μM) was incubated with tetra-oleoyl-cardiolipin (TOCL) containing liposomes (CL/cyt c ratio 25:1). Then 50 μM Amplex Red and 50 μM H2O2 were added, and the incubation proceeded for an additional 20 min. Fluorescence was detected by employing a “Fusion α” universal microplate analyzer and by using an excitation wavelength of 535 nm and an emission wavelength of 590 nm. EPR spectra of etoposide phenoxyl radicals were recorded at 25° C. in gas permeable Teflon tubings (inner diameter, 0.8 mm; thickness, 0.013; Alpha Wire Corp., Elizabeth, N.J.). Volume of samples was 60 μL. The spectra were recorded under the following conditions: 335.3 mT, center field; 2 mT, sweep width; 0.04 mT, field modulation; 10 mW, microwave power; 0.1 s, time constant; 2 min, time scan. The time course of the etoposide radical EPR signal was obtained by repeated scanning of the field (0.15 mT, sweep width; 335.3 mT, center field) corresponding to a part of the EPR signal. Peroxidase activity of mitochondria was determined by the formation of resorufin from Amplex Red. Isolated mouse liver mitochondria (0.6 mg/ml) were incubated in the presence of 100 μM Amplex Red and 2 mM tert-butyl hydroperoxide (tBOOH). After incubation at room temperature for 20 min, fluorescence of resurufin was measured.
as §1
Peroxidase activity of cyt c was assessed by oxidation of Amplex Red, etoposide or TLCL as described above.

[3] = tested on: mouse embryonic cells; assay: Superoxide production in mouse embryonic cells (dihydroethidium, flow cytometry); format: cell-based; settings: cells with or without radiation treatment (10 Gy); 2.5 and 5 μM, 18 hrs
Method: Cells were γ-irradiated at a dose of 10 Gy and then incubated with different concentrations of TPP-IOA or TPP-ISA (2.5 and 5 μM) for 18 hrs. To estimate superoxide generation, cells were incubated with 5 μM of dihydroethidium (DHE) for 30 min at 37° C. Collected cells were re-suspended in phosphate buffered saline (PBS) and fluorescence of 2-hydroxyethidium was analyzed using FACScan supplied with CellQuest software. Data are means±S.D., n=3. *p<0.01 vs. control cells (without any treatment).
A superoxide-meditated oxidation-sensitive fluorogenic dye, dihydroethidium (DHE), was utilized for assessments of superoxide production. Briefly, cells were incubated with 5 μM of DHE for 30 min. Cells were collected by trypsinization and re-suspended in PBS. The fluorescence of 2-hydroxyethidium was measured using a FACScan flow cytometer (BD Biosciences, San Jose, Calif.) supplied with the CellQuest software. Mean fluorescence intensity from 10,000 cells was acquired using a 585/42-nm band-pass filter.

[4] = tested on: mouse embryonic cells; assay: γ-Irradiation induced apoptosis in mouse embryonic cells (PS externalization Annexin V/PI, caspase 3/7, cyt c release); format: cell-based; settings: for necrotic cells (PI-positive, Annexin V-positive) after irradiation and treatment / apoptotic cells (PI-negative, Annexin V-positive) after irradiation and treatment: 10 Gy; for necrotic cells (PI-positive, Annexin V-positive) after irradiation and treatment: irradiated only 12.9%; for apoptotic cells (PI-negative, Annexin V-positive) after irradiation and treatment: irradiated only 28.9%
Method: Mouse embryonic cells were seeded on a 35 mm dish at a cell density of 5×10^4/dish, and allowed to attach overnight. The cells were γ-irradiated at a dose of 10 Gy using a Shepherd model 143-45A irradiator (J.L. Shepherd & Associates, CA). Ten min after irradiation, different concentrations of TPP-ISA or TPP-IOA (2.5 and 5 μM) were added and cells were incubated at 37° C. in 5% CO2 for 48 h. Then, cells were harvested for measuring phosphatidylserine externalization by an Annexin V/PI kit and caspase 3/7 activity using a Caspase-Glo® 3/7 Assay kit. Data are means±S.D., n=3. *p<0.01 vs. irradiated only cells.
Phosphatidylserine externalization was determined by an Annexin V-FITC apoptosis detection kit (Biovision) according to the manufacturer's instructions.
Caspase-3/7 activity was measured using a luminescence Caspase-Glo 3/7 assay kit (Promega) according to the manufacturer's instructions.
Cells were collected after 48 h post-irradiation incubation and resuspended in lysis buffer containing 0.05% digitonin for 4 min on ice. Supernatants were collected after centrifugation for 10 min at 10,000 g. Equal amounts of protein were subject to 15% SDS-PAGE, transferred onto a nitrocellulose membrane, and probed with antibodies against cyt c (clone 7H, 8.2; C12, BD Pharmingen) or actin (Novus) (loading control) followed by horseradish peroxidase-coupled detection. The protein band profile was analysed by densitometry using Labworks image acquisition and analysis software (UVP).

[5] = tested on: C57BL/6NTac female mice; assay: Survival of mice after 9.25 Gy total body irradiation, cesium irradiator; format: in vivo, mouse; settings: for radiomitigative effect (survival): i.p. 5 mg per kg, 10 min after irradiation

T1 sequence (P00004 2-105 limits assumed): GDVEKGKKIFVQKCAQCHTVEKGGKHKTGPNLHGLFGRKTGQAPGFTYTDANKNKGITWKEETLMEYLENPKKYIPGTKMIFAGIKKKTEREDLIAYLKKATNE
T2 sequence (P00004 2-105 limits assumed, one chain of several): as the sequence (P00004 2-105 limits assumed) above

SMILES	inhibition of cyt c/H2O2-induced oxidation of TLCL [1]	oxidation of TLCL at ratio of cyt c to compound of 1:20 [1]	inhibition of peroxidase activity of cyt c/TOCL complexes (Amplex Red oxidation) [2]	effect on superoxide production [3]	necrotic cells (PI-positive, Annexin V-positive) after irradiation and treatment [4] [%]	apoptotic cells (PI-negative, Annexin V-positive) after irradiation and treatment [4] [%]	decrease in the number of apoptotic cells ([4]; versus irradiated only cells)	reduction in the number of necrotic cells ([4]; versus irradiated only cells) [fold]	P (two-sided log-rank test), TPP-IOA versus TPP-ISA ([5]; 5 mg per kg 10 min after irradiation)	radiomitigative effect (survival) [5]
CCCCCCC(C/C=C\CCCCCCCC(=O)OCCC[P+](c1ccccc1)(c1ccccc1)c1ccccc1)n1ccnc1.[Br-] (centres unmarked) [TPP-IOA]	inhibited cyt c/H2O2-induced oxidation of TLCL in a concentration-dependent manner	completely blocked	as effective as non-conjugated ISA and IOA	neither TPP-IOA nor TPP-ISA had any effect	8.2	14.8	twofold	1.6	0.6389	strong radiomitigative effect
CCCCCCC(CCCCCCCCCCC(=O)OCCC[P+](c1ccccc1)(c1ccccc1)c1ccccc1)n1ccnc1.[Br-] (centres unmarked) [TPP-ISA]	inhibited cyt c/H2O2-induced oxidation of TLCL in a concentration-dependent manner	completely blocked	as effective as non-conjugated ISA and IOA	neither TPP-IOA nor TPP-ISA had any effect	7.8	13.9	–	–	–	strong radiomitigative effect
